# In patent publication US20230277630A1, “METHODS AND COMPOSITIONS FOR TREATING AMYOTROPHIC LATERAL SCLEROSIS” (Amylyx Pharmaceuticals, Inc., priority 2022, published 2023):
# Where a name gives a salt, the structure may show the parent alone.
# Assays:
# CYP2C9 = CYP2C9 (Homo sapiens, UniProt P11712); test: Inhibition of CYP2C9 activity in human liver microsomes
# Protocol: CYP enzyme activity was determined by measuring the formation of each CYP probe metabolite by LC-MS/MS.
# The total organic solvent content in the final incubation was less than 1% (DMSO ≤0.1%, other organic solvent ≤1%). […] The reaction was initiated by the addition of NADPH, followed by incubation at 37° C. for 10-30 minutes depending on the individual CYP isoform. The reaction was terminated by the addition of two volumes of ice-cold acetonitrile (ACN) containing an internal standard (IS, stable isotope-labeled CYP probe metabolite). Negative (vehicle) controls were conducted without TA. Positive controls were performed in parallel using known CYP inhibitors. […] The formation of individual CYP probe metabolites was determined by LC-MS/MS.
# The enzyme activity was expressed as the peak area ratio of probe metabolite to IS, measured by LC-MS/MS.
# [1] = rat, in vivo
# human hepatocytes = conditions: 72 h, 100 µM
# Protocol: Plateable and inducible cryopreserved human hepatocytes were thawed and isolated in human hepatocyte thawing medium. […] After attachment (4 hours), the medium was changed to fresh hepatocyte culture medium for overnight cell recovery. […] A positive control (100 μM chlorpromazine) was treated in parallel. […] The absorbance of formazan, which is proportional to the number of viable cells, was measured spectrophotometrically using the CellTiter 96® AQueous One Solution Cell Proliferation Assay (MTS).
# OATP1B1 = target: T1, OATP1B1 (Homo sapiens, UniProt Q9Y6L6); test: OATP1B1 inhibitor (IC50) assessment, atorvastatin uptake in transfected HEK cells
# T1 sequence (Q9Y6L6 1-691): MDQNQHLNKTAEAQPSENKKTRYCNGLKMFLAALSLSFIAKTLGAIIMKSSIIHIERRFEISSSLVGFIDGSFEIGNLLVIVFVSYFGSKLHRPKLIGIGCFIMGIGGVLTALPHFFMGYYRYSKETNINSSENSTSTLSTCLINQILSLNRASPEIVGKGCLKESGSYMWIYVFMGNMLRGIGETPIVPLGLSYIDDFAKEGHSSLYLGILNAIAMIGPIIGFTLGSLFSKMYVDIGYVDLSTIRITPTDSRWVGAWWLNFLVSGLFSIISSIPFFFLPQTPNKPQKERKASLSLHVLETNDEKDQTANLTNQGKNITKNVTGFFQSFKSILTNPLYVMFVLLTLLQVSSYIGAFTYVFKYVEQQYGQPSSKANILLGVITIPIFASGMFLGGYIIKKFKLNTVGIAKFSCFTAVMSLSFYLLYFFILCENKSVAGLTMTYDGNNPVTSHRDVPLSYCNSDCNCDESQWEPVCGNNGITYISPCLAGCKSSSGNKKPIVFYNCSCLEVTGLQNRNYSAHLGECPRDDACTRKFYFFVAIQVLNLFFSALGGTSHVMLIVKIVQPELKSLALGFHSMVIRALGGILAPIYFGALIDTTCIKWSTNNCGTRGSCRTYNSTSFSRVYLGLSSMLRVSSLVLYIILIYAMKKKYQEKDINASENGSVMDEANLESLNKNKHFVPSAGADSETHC
# OATP1B3 = target: T2, OATP1B3 (Homo sapiens, UniProt Q9NPD5); test: OATP1B3 inhibitor (IC50) assessment, atorvastatin uptake in transfected HEK cells
# T2 sequence (Q9NPD5 1-702): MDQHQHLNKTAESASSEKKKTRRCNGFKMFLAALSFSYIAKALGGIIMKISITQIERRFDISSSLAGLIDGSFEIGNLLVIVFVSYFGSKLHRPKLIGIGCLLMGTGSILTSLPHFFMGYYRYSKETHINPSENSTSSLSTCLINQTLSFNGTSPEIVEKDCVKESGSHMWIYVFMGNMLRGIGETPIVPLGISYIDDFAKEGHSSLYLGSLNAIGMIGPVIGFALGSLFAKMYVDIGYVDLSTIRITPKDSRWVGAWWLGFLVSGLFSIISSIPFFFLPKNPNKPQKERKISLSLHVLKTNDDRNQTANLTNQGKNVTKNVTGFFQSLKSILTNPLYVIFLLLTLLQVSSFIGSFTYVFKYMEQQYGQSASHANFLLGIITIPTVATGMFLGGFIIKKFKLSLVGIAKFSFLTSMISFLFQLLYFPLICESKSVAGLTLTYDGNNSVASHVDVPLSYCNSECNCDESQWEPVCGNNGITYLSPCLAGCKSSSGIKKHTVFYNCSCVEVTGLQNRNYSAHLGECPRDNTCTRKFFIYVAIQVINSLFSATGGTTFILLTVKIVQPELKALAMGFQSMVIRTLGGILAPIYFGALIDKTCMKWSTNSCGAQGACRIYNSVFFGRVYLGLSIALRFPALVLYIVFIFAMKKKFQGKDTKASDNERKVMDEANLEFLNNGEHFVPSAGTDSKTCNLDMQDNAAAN
# [2] = CYP reaction phenotyping: CYP control (negative control without CYP enzymes); conditions: pH 7.4
# Protocol: The reaction was initiated by the addition of NADPH, followed by incubation at 37° C.
# hrCYP3A4 = hrCYP3A4 (Homo sapiens, UniProt P08684); test: Formation of CYP probe metabolites in hrCYPs; format: in vitro ADME; conditions: Formation rate(hrCYP)/Formation rate(Negative Control)
# Chain of hrCYP3A4 (P08684 whole entry): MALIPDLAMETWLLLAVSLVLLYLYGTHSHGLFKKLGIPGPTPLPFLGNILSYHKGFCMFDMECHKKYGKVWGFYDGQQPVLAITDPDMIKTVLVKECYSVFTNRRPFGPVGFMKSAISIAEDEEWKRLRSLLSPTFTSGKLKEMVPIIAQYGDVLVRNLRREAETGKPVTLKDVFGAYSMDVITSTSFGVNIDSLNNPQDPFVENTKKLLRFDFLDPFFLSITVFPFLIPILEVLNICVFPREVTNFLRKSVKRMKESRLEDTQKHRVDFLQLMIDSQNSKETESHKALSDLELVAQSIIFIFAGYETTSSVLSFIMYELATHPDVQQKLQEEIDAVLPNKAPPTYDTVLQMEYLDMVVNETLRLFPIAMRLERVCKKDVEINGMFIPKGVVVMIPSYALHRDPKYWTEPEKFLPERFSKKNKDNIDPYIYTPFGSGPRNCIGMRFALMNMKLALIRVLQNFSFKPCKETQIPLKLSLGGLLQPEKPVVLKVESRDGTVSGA
# [3] = parameters: species or system male Sprague Dawley rats; conditions: male, Sprague Dawley, rat, in vivo, po
# Protocol: Total urine recovery data for Tenofovir, TDF, and PB was calculated for the 24 hour collection period on Days 1 and 5. […] The reported urine recovery data included amount recovered (ng) and percent recovered (%) for […]. Individual and mean Tenofovir, TDF, and PB urine recovery data were presented with SD, reported to three significant figures, and CV %, reported to one decimal place.
# CYP2C8 = target: T3, CYP2C8 (Homo sapiens, UniProt P10632); test: Inhibition of CYP2C8 activity in human liver microsomes; format: in vitro ADME; parameters: co-incubated with pooled HLM (0.25 mg protein/mL); from tissue; host or cells: pooled human liver microsomes
# T3 sequence (P10632 1-490): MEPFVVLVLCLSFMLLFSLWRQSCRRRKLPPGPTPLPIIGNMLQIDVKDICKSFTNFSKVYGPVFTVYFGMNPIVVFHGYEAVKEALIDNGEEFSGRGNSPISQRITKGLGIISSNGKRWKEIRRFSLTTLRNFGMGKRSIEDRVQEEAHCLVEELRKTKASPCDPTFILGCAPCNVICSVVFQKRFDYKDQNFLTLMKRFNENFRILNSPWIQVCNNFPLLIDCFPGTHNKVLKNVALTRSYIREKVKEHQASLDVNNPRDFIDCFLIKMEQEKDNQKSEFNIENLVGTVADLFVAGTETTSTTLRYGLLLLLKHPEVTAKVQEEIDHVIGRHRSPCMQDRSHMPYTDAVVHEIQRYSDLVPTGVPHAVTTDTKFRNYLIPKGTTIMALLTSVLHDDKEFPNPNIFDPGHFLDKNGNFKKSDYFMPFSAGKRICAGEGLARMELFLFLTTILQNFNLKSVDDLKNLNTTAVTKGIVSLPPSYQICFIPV
# Protocol: […]. […] Negative (vehicle) controls were conducted without TA.
# CYP2B6 [4] = target: T4, CYP2B6 (Homo sapiens, UniProt P20813); test: Time-dependent inhibition (TDI) of CYP in HLM, 30 min pre-incubation ±NADPH; conditions: microsomes, pH 7.4, % of Control Enzyme Activity
# T4 sequence (P20813 1-491): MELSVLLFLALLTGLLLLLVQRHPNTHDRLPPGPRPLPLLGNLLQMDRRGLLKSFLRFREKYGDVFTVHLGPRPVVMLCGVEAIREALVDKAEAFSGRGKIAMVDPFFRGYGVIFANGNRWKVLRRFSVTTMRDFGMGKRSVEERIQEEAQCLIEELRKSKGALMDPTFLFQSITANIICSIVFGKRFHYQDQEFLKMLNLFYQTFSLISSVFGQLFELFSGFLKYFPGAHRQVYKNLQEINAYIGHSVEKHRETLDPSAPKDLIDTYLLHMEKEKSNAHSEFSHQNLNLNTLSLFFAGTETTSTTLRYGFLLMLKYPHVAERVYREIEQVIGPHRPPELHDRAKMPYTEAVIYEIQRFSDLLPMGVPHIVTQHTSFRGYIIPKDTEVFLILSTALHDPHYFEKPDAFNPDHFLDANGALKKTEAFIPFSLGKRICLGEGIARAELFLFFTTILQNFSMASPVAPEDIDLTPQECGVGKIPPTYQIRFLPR
# Protocol: CYP TDI was evaluated by a 30-minute pre-incubation of the TA with HLM in the presence and absence of NADPH followed by the CYP enzyme activity assay. […] The total organic solvent content in the final incubation was less than 1% (DMSO ≤0.1%, other organic solvent ≤1%). The CYP reactions were initiated by adding an individual CYP probe substrate with (when NADPH was not added in the pre-incubation step) or without (when NADPH was added in the pre-incubation step) the addition of NADPH (1 mM). The reaction mixture was incubated at 37° C. for 10-30 minutes depending on the individual CYP isoform (Table 24). The reaction was terminated with ice-cold acetonitrile (ACN) containing an internal standard (IS, stable isotope-labeled CYP probe metabolite). Negative (vehicle) controls were conducted using the incubation mixture without the TA. Positive controls were performed in parallel using known CYP time-dependent inhibitors. […] The formation of individual CYP probe metabolites was determined by LC-MS/MS.
# The enzyme activity was expressed as the peak area ratio of CYP probe metabolite to IS, measured by LC-MS/MS.
# CYP2B6 [5] = target: T4, CYP2B6; test: Inhibition of CYP2B6 activity in human liver microsomes; format: in vitro ADME; parameters: co-incubated with pooled HLM (0.25 mg protein/mL); from tissue; host or cells: pooled human liver microsomes
# Chain of CYP2C9 (P11712 whole entry): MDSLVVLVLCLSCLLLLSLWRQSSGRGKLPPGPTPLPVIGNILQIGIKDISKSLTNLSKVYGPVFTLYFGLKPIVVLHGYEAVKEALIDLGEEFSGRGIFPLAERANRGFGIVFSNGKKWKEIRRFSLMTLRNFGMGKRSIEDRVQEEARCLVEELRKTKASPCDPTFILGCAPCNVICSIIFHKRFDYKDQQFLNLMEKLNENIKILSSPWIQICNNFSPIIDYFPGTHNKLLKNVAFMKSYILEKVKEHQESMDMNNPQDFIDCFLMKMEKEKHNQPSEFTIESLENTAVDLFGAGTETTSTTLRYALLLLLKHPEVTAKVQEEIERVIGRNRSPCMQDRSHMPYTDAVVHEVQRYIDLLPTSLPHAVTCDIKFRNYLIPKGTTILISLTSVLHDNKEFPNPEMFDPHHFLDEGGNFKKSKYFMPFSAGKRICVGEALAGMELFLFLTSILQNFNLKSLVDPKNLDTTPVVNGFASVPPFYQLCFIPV
structure (smiles),measurement,setting,value
Nc1ccc(S(=O)(=O)Nc2ccnn2-c2ccccc2)cc1 [Sulfaphenazole],% of Control Enzyme Activity (n = 3) Average,CYP2C9; Sulfaphenazole 3.33 μM,23.8%
same,% of Control Enzyme Activity (n = 3) Average,CYP2C9; Sulfaphenazole 10.0 μM,14.9%
C[C@H](Cn1cnc2c(N)ncnc21)OCP(=O)(O)O [Tenofovir],individual Tmax,[1],15 min
"CN(C)CCCN1c2ccccc2Sc2ccc(Cl)cc21 [Chlorpromazine, chlorpromazine]",% MTS Absorbance Relative to Vehicle Control,human hepatocytes,24.3%
same,Formazan Absorbance (n = 3) Mean,human hepatocytes,0.160
"CO[C@H]1/C=C/O[C@@]2(C)Oc3c(C)c([O-])c4c(O)c(cc(O)c4c3C2=O)NC(=O)/C(C)=C\C=C\[C@H](C)[C@H](O)[C@@H](C)[C@@H](O)[C@@H](C)[C@H](OC(C)=O)[C@@H]1C.[Na+] [RSV, rifamycin SV]",Net Influx Rate of Atorvastatin (OATP1B1),OATP1B1; […] Atorvastatin + 10 μM RSV,0.184 pmol/mg protein/minute
same,Percentage Inhibition of OATP1B1,OATP1B1; […] Atorvastatin + 10 μM RSV,96.7%
same,inhibition of atorvastatin uptake in OATP1B1-transfected cells,OATP1B1; known inhibitor,96.7%
same,Net Influx Rate of Atorvastatin (OATP1B3),OATP1B3; […] Atorvastatin + 10 μM RSV,0.0551 pmol/mgprotein/minute
same,Percentage Inhibition of OATP1B3,OATP1B3; […] Atorvastatin + 10 μM RSV,98.1%
same,inhibition of atorvastatin uptake in OATP1B3-transfected cells,OATP1B3; known inhibitor,98.1%
"Cc1ncc2n1-c1ccc(Cl)cc1C(c1ccccc1F)=NC2 [Midazolam, reference compound]",Formation Rate,[2],0 pmol metabolite/min/mg Supersome protein
same,Measured Metabolite,[2],0 µM
same,Formation Rate Ratio,hrCYP3A4,>>2
"CC(C)OC(=O)OCOP(=O)(CO[C@H](C)Cn1cnc2c(N)ncnc21)OCOC(=O)OC(C)C [TDF, Tenofovir Disoproxil Fumarate]",Urine concentrations,[3],"Urine concentrations for PB analysis in all animals on Day 1, for TUDCA analysis in all animals on Days 1 and 5, and for TDF analysis in two animals on Day 1 and one animal on Day 5 were BLQ (<20 ng/mL) so no recovery data was calculated."
CC(C)(O)c1ccccc1CC[C@@H](SCC1(CC(=O)O)CC1)c1cccc(/C=C/c2ccc3ccc(Cl)cc3n2)c1 [Montelukast],activity at 3.33 μM,"CYP2C8; human, microsomes, pH 7.4",14.6%
same,activity at 10 μM,"CYP2C8; human, microsomes, pH 7.4",5.31%
same,IC50,"CYP2C8; positive inhibitor, HLM",517 nM
S=P(N1CC1)(N1CC1)N1CC1 [Thio-TEPA],"activity at 30 min, 3.33 µM","CYP2B6 [4]; +NADPH 30 min, 3.33 μM",35.5%
same,"activity at 30 min, 10 µM",CYP2B6 [4]; +NADPH 30 min,18.3%
same,"activity at 30 min, 30 µM",CYP2B6 [4]; +NADPH 30 min,11.6%
same,"activity at 30 min, 10 µM",CYP2B6 [4]; −NADPH 30 min,76.7%
same,"activity at 30 min, 30 µM",CYP2B6 [4]; −NADPH 30 min,54.8%
same,% of Control Enzyme Activity (n = 3) Average,CYP2B6 [5]; Thio-TEPA 3.33 μM,66.9%
same,% of Control Enzyme Activity (n = 3) Average,CYP2B6 [5]; Thio-TEPA 10.0 μM,44.1%
same,% of Control Enzyme Activity (n = 3) Average,CYP2B6 [5]; Thio-TEPA 30.0 μM,26.7%
"C[C@]12CC[C@H]3[C@@H](CCC4=CC(=O)CC[C@@]43C)[C@@H]1CC[C@@H]2O [Testosterone, reference compound]",Formation Rate,[2],0 pmol metabolite/min/mg Supersome protein
same,Measured Metabolite,[2],0 µM
same,Formation Rate Ratio,hrCYP3A4,>>2
